Measured values taken from US20140024638A1, “TREATMENT OF COGNITIVE DYSFUNCTION IN SCHIZOPHRENIA” (TARGACEPT, INC., priority 2011, published 2014).

How the values were obtained:
[1] = hygroscopicity (salt screening); assay type: physicochemical
[2] = water solubility (salt screening); assay type: physicochemical

| Compound | hygroscopicity [1] | water solubility [2] |
| --- | --- | --- |
| Cc1ccc(S(=O)(=O)O)cc1.O=C(N[C@@H]1C2CCN(CC2)[C@H]1Cc1cccnc1)c1cc2ccccc2o1 [p-toluenesulfonic acid salt, (2S,3R)—N-(2-((3-pyridinyl)methyl)-1-azabicyclo[2.2.2]oct-3-yl)benzofuran-2-carboxamide p-toluenesulfonate] | low | good |
| O=C(N[C@@H]1C2CCN(CC2)[C@H]1Cc1cccnc1)c1cc2ccccc2o1.O=P(O)(O)O [phosphoric acid salt] | low | – |
